± gives the expanded uncertainty stated by the source.
Conditions: Liquid, Ebulliometric method (Recirculating still)

Structure (SMILES): Cc1ccccc1C [1,2-dimethylbenzene]
- vapor or sublimation pressure (365.49 K): 20.4 ± 0.35 kPa
- vapor or sublimation pressure (376.75 K): 30.14 ± 0.35 kPa
- vapor or sublimation pressure (385.55 K): 40.2 ± 0.36 kPa
- vapor or sublimation pressure (392.87 K): 50.43 ± 0.37 kPa
- vapor or sublimation pressure (398.66 K): 60.03 ± 0.38 kPa
- vapor or sublimation pressure (404.09 K): 70.27 ± 0.4 kPa
- vapor or sublimation pressure (408.83 K): 80.41 ± 0.41 kPa
- vapor or sublimation pressure (413.06 K): 90.54 ± 0.43 kPa
- vapor or sublimation pressure (417.28 K): 101.85 ± 0.44 kPa

Structure (SMILES): C1CCSC1 [tetrahydrothiophene]
- vapor or sublimation pressure (344.79 K): 20.39 ± 0.35 kPa
- vapor or sublimation pressure (357.27 K): 32.09 ± 0.36 kPa
- vapor or sublimation pressure (365.3 K): 42.29 ± 0.37 kPa
- vapor or sublimation pressure (372.09 K): 52.61 ± 0.38 kPa
- vapor or sublimation pressure (377.89 K): 63.09 ± 0.39 kPa
- vapor or sublimation pressure (382.18 K): 71.89 ± 0.41 kPa
- vapor or sublimation pressure (386.25 K): 81.18 ± 0.42 kPa
- vapor or sublimation pressure (390.38 K): 91.67 ± 0.44 kPa
- vapor or sublimation pressure (394.05 K): 102.02 ± 0.45 kPa
